Measurements as given in patent US11331299B2, “Medicinal use of serrulatane diterpenes” (The University of Sydney, priority 2016, dated 2022).
Read-outs that look alike come from different tables or passages of the source.

How the values were obtained:
HCT-8 = experiment: OncoPanel cell proliferation assay (10-day); type: cell-based, human; details: for EC50 / GI50 / IC50: Homo sapiens, HCT-8, Colon; for EC50: read-out: Cell Count EC50; for GI50: read-out: Cell Count GI50; for IC50: read-out: Cell Count IC50
PB1(2) (h) bromodomain = target: T1, PB1(2) (h) bromodomain (Homo sapiens, UniProt Q86U86); experiment: Epigenetic binding assay, Bromodomain; details: read-out: % Inhibition of Control Specific Binding
T1 construct: Bromodomain

[1] = target: T2, sirtuin 1 (h) (inhibitor effect) (Homo sapiens, UniProt Q96EB6); experiment: Epigenetic enzyme assay, Sirtuins; type: biochemical; details: read-out: % Inhibition of Control Values
T2 sequence (Q96EB6 1-747): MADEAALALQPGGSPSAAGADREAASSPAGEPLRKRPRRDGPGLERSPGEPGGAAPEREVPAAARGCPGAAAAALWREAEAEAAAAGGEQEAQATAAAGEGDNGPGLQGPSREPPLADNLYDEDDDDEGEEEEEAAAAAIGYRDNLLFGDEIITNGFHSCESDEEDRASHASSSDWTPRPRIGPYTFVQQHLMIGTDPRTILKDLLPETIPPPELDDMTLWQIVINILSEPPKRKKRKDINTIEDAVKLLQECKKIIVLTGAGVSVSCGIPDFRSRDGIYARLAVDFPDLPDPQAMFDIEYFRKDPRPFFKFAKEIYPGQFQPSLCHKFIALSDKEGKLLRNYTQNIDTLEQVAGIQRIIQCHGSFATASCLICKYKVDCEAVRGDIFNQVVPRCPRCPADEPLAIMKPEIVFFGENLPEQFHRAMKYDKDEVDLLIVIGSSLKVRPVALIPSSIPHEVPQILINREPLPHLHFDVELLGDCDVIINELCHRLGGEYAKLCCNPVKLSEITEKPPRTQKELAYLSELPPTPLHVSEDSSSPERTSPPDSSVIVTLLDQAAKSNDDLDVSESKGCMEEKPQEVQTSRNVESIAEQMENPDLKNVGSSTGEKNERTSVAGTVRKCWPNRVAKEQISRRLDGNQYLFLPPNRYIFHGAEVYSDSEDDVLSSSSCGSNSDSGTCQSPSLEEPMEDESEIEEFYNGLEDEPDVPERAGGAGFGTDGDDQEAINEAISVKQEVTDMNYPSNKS

HDAC2 (h) = HDAC2 (h) (Homo sapiens, UniProt Q92769); experiment: Epigenetic enzyme assay, Histone deacetylase (HDACs); type: biochemical; details: read-out: % Inhibition of Control Values
GCN5L2(h) = GCN5L2(h) (Homo sapiens, UniProt Q92830); experiment: Epigenetic enzyme assay, Histone acetyltransferases (HATs); type: biochemical; details: 10 μM; read-out: % Inhibition of Control Values
JARID1B (h) = JARID1B (h) (Homo sapiens, UniProt Q9UGL1); experiment: Epigenetic enzyme assay, Demethylases (KDMs); type: biochemical; details: for inhibition at 10 µM: read-out: % Inhibition of Control Values
Steroid 5alpha-Reductase = experiment: Steroid 5α-Reductase; type: biochemical, Wistar Rat; details: 10 μM; assay year 2015
Protocol: The in vitro pharmacological studies were conducted by Eurofins PanLab (Taiwan) using the parameters shown in Table 13 with respect to appropriate literature references.

[2] = target: PKBalpha/AKT1(h) (substrate histone H3 full length) (Homo sapiens, UniProt P31749); experiment: Epigenetic enzyme assay, Kinases; type: biochemical; details: read-out: % Inhibition of Control Values
H3K79 me2 = experiment: Cell-based detection methyl modifications; details: read-out: % Inhibition of Control Values
FALZ (h) bromodomain = target: T3, FALZ (h) bromodomain (Homo sapiens, UniProt Q12830); experiment: Epigenetic binding assay, Bromodomain; details: 10 μM; read-out: % Inhibition of Control Specific Binding
T3 construct: Bromodomain; Eurofins CEREP (France), contract laboratory

PB1(4) (h) bromodomain = target: T4, PB1(4) (h) bromodomain (Homo sapiens, UniProt Q86U86); experiment: Epigenetic binding assay, Bromodomain; details: 10 μM; read-out: % Inhibition of Control Specific Binding
T4 construct: Bromodomain

CECR2 (h) bromodomain = target: T5, CECR2 (h) bromodomain (Homo sapiens, UniProt Q9BXF3); experiment: Epigenetic binding assay, Bromodomain; details: for inhibition at 10 µM: read-out: % Inhibition of Control Specific Binding
T5 construct: CECR2(h) bromodomain

USP 7 (h) = USP 7 (h) (Homo sapiens, UniProt Q93009); experiment: Epigenetic enzyme assay, Ubiquitin modifying enzymes; type: biochemical; details: 10 μM; read-out: % Inhibition of Control Values
PHF8(h) = PHF8(h) (Homo sapiens, UniProt Q9UPP1); experiment: Epigenetic enzyme assay, Demethylases (KDMs); type: biochemical; details: read-out: % Inhibition of Control Values
[3] = system: A204 (soft tissue sarcoma); experiment: OncoPanel cell proliferation assay (10-day); type: cell-based; details: Homo sapiens; for EC50: read-out: Cell Count EC50; for IC50: read-out: Cell Count IC50
SMARCA4 (h) bromodomain = target: T6, SMARCA4 (h) bromodomain (Homo sapiens, UniProt P51532); experiment: Epigenetic binding assay, Bromodomain; details: read-out: % Inhibition of Control Specific Binding
T6 construct: Bromodomain

PRMT4 (h) = target: T7, PRMT4 (h) (Homo sapiens, UniProt Q86X55); experiment: Epigenetic enzyme assay, Methyltransferases (MTs); type: biochemical; details: for inhibition at 10 µM: read-out: % Inhibition of Control Values; for IC50: Table 11, inhibition/concentration-response curve
T7 sequence (Q86X55 1-608): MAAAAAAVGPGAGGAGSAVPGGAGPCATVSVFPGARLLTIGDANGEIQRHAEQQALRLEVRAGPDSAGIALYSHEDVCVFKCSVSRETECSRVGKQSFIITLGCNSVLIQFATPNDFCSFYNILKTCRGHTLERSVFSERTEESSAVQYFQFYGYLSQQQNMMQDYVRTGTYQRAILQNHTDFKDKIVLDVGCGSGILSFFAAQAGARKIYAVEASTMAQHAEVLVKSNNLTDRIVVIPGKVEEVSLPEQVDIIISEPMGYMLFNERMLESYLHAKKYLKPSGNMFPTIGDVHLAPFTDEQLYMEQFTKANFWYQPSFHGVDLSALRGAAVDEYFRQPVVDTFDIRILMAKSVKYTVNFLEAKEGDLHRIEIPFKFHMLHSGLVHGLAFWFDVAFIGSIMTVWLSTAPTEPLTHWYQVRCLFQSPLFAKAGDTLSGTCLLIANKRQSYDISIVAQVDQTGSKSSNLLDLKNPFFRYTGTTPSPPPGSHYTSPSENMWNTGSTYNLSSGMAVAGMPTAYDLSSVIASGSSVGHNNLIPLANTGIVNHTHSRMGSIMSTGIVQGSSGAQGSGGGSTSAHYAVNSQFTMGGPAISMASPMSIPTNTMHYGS

CREBBP(h) = CREBBP(h) (Homo sapiens, UniProt Q92793); experiment: Epigenetic enzyme assay, Histone acetyltransferases (HATs); type: biochemical; details: for inhibition at 10 µM: read-out: % Inhibition of Control Values; for IC50: Table 11, inhibition/concentration-response curve
[4] = A204, Soft Tissue - Sarcoma, read-out: Cell Count GI50

GCN5L2(h), sequence (Q92830 whole entry): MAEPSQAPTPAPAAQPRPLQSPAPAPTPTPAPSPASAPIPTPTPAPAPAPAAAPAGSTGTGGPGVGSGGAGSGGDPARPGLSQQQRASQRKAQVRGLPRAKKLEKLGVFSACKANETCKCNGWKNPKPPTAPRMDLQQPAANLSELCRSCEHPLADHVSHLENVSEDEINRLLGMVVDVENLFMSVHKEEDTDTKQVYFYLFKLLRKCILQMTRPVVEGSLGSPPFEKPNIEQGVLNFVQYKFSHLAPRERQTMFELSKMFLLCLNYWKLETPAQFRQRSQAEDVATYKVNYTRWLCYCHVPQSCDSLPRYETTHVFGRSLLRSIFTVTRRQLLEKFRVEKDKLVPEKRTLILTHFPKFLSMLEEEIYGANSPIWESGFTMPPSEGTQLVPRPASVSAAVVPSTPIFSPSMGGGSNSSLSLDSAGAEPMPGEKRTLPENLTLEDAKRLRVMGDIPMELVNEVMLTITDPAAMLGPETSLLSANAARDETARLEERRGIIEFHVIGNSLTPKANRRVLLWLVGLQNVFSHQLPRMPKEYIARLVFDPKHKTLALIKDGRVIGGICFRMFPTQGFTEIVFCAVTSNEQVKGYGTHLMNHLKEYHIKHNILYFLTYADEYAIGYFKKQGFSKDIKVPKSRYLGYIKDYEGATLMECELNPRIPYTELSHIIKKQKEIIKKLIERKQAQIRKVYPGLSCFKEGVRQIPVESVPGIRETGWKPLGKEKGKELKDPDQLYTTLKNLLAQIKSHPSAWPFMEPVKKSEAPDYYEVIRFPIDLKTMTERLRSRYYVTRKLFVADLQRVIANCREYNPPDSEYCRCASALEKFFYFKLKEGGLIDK
HDAC2 (h), sequence (Q92769 whole entry): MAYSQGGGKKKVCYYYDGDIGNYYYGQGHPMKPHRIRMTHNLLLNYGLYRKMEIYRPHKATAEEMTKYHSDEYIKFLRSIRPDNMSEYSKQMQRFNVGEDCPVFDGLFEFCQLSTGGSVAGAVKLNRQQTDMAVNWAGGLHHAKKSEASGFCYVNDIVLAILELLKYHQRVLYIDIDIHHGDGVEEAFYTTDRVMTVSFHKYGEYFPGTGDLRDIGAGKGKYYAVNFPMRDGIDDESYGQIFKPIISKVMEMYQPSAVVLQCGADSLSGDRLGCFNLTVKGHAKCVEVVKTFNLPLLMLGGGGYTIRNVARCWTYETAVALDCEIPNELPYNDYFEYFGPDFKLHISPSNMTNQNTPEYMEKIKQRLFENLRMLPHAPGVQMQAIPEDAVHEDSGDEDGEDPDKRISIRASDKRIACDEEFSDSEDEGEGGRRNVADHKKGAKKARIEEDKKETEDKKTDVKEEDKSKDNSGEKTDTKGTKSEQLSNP
USP 7 (h), sequence (Q93009 whole entry): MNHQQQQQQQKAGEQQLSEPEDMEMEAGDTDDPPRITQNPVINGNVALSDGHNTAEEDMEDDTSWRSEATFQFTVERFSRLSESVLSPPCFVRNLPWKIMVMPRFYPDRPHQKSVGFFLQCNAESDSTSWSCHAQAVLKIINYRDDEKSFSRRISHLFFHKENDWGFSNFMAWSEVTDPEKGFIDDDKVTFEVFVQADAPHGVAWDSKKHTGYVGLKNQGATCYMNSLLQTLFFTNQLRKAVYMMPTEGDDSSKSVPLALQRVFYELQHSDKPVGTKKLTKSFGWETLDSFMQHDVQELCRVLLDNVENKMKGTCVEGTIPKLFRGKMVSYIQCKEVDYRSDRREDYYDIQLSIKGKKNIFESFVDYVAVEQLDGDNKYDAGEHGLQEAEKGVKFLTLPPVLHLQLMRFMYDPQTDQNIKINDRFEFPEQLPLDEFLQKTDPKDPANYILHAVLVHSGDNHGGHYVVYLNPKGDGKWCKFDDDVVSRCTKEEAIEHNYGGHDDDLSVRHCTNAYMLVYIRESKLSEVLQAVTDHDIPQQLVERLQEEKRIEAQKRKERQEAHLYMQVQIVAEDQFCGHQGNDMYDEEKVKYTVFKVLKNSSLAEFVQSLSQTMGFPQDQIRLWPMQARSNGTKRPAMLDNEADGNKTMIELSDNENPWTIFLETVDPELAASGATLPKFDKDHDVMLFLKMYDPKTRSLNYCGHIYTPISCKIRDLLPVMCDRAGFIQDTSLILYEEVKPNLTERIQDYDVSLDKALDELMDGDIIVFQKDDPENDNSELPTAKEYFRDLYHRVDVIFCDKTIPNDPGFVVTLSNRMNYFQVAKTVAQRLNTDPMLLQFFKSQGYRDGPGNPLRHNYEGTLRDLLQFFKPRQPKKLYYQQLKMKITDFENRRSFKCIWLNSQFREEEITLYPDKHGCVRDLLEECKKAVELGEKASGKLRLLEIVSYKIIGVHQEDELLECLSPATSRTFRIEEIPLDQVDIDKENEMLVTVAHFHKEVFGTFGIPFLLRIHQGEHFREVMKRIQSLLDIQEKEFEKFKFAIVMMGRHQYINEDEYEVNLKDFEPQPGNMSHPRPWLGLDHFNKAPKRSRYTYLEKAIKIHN
T6 sequence (P51532 1453-1564 limits assumed): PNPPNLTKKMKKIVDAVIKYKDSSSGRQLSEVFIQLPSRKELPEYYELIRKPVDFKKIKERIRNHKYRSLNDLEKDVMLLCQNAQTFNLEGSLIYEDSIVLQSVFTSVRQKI
T5 sequence (Q9BXF3 434-538 limits assumed): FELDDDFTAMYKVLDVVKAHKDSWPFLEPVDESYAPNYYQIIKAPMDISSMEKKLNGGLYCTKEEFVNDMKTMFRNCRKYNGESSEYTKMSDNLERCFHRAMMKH
PHF8(h), sequence (Q9UPP1 whole entry): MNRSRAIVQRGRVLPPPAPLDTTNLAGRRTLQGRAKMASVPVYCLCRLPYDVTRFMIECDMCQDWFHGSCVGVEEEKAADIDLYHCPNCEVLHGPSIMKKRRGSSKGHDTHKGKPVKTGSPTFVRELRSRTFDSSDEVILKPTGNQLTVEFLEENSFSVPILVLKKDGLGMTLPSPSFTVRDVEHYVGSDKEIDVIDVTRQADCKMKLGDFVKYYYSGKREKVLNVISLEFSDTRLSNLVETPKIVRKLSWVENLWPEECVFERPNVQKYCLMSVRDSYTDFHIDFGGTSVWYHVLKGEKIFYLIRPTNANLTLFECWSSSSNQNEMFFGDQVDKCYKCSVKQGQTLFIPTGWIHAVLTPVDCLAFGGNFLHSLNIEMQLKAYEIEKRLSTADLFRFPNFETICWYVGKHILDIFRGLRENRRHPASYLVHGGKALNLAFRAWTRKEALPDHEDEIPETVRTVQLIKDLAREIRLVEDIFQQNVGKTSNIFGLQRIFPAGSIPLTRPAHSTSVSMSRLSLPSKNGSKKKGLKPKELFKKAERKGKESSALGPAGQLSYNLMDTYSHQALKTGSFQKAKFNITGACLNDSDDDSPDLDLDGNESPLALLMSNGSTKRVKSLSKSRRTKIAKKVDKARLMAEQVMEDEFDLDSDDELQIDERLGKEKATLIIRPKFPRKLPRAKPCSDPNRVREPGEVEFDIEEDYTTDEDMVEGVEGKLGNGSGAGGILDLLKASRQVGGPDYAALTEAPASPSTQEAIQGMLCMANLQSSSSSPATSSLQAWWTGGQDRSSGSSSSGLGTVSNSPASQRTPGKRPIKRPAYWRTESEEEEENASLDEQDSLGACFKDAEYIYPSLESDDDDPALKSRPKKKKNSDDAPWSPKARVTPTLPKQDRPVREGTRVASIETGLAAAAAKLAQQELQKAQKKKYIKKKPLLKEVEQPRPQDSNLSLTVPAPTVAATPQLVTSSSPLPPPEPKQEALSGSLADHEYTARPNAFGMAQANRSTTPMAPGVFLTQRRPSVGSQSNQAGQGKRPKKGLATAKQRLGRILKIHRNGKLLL
T1 sequence (Q86U86 177-287 limits assumed): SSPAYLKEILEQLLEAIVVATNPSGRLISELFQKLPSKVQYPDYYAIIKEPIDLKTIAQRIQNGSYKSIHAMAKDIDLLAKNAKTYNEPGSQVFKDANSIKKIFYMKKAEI
PKBalpha/AKT1(h) (substrate histone H3 full length), sequence (P31749 whole entry): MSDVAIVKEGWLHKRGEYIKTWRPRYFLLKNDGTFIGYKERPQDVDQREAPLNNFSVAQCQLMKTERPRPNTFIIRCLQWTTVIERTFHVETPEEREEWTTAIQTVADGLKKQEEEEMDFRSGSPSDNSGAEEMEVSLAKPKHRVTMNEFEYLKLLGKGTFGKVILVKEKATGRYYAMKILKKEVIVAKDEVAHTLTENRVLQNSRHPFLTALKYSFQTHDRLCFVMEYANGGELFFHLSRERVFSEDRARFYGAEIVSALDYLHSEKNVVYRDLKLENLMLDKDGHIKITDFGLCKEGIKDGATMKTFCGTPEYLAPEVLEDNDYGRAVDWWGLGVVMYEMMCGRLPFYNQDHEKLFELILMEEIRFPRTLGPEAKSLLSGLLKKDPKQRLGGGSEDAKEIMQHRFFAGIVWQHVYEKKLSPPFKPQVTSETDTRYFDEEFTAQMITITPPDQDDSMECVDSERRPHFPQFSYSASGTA
T4 sequence (Q86U86 518-625 limits assumed): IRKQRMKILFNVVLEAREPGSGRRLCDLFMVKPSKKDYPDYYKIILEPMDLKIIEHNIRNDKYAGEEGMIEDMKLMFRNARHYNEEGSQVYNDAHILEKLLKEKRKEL

## CC(C)=CCC[C@H](CO)[C@@H]1CC[C@@H](C)c2c1cc(C)c(O)c2O [Compound 1, 7,8,18-trihydroxyserrulat-14-ene]
HCT-8; HCT-8, 3.00E+00 microM
  Relative cell count (%) Mean: 1.9%
HCT-8; HCT-8, 3.00E+01 microM
  Relative cell count (%) Mean: 0.0%
HCT-8; HCT-8, 3.01E−01 microM
  Relative cell count (%) Mean: 94.9%
HCT-8; HCT-8, 3.01E−02 microM
  Relative cell count (%) Mean: 91.8%
HCT-8; HCT-8, 3.02E−03 microM
  Relative cell count (%) Mean: 104.1%
HCT-8; HCT-8, 9.49E+00 microM
  Relative cell count (%) Mean: 0.0%
HCT-8; HCT-8, 9.51E−01 microM
  Relative cell count (%) Mean: 72.6%
HCT-8; HCT-8, 9.52E−02 microM
  Relative cell count (%) Mean: 100.8%
HCT-8; HCT-8, 9.53E−03 microM
  Relative cell count (%) Mean: 91.0%
HCT-8; HCT-8, 9.55E−04 microM
  Relative cell count (%) Mean: 102.6%
HCT-8
  EC50: 1.23 µM
  GI50: 1.23 µM
  IC50: 1.23 µM
PB1(2) (h) bromodomain
  inhibition at 10 µM: 31%
[1]
  inhibition at 10 µM: 2%
HDAC2 (h)
  inhibition at 10 µM: 1%
GCN5L2(h)
  inhibition at 10 µM: 11%
JARID1B (h); 10 μM
  % Inhibition of Control Values: significant inhibitory activity
  inhibition at 10 µM: 70%
JARID1B (h); Table 11, inhibition/concentration-response curve
  IC50: 3.6 µM
Steroid 5alpha-Reductase
  % Control Response: 2%
[2]
  inhibition at 10 µM: -1%
H3K79 me2
  inhibition at 10 µM: -2%
FALZ (h) bromodomain
  inhibition at 10 µM: 42%
PB1(4) (h) bromodomain
  inhibition at 10 µM: 41%
CECR2 (h) bromodomain; 10 μM
  % Inhibition of Control Specific Binding: significant inhibitory activity
  inhibition at 10 µM: 100%
CECR2 (h) bromodomain; 3.0E−05M
  inhibition of binding, 1st: 99.4
  inhibition of binding, 2nd: 99.6
  inhibition of binding, Mean: 99.5
CECR2 (h) bromodomain; 3.0E−06M
  inhibition of binding, 1st: 7.3
  inhibition of binding, 2nd: 8.6
  inhibition of binding, Mean: 7.9
CECR2 (h) bromodomain; 3.0E−07M
  inhibition of binding, 1st: −1.5
  inhibition of binding, 2nd: 0.9
  inhibition of binding, Mean: −0.3
CECR2 (h) bromodomain; 3.0E−08M
  inhibition of binding, 1st: −0.9
  inhibition of binding, 2nd: −1.7
  inhibition of binding, Mean: −1.3
CECR2 (h) bromodomain; 3.0E−09M
  inhibition of binding, 1st: 5.9
  inhibition of binding, 2nd: 2.4
  inhibition of binding, Mean: 4.2
CECR2 (h) bromodomain; Table 9, inhibition/concentration-response curve
  IC50: 5 µM
USP 7 (h)
  inhibition at 10 µM: -18%
PHF8(h)
  inhibition at 10 µM: 36%
[3]; A204, Soft Tissue - Sarcoma
  EC50: 520 nM
  IC50: 540 nM
[3]; [4]
  GI50: 520 nM
SMARCA4 (h) bromodomain
  inhibition at 10 µM: 53%
PRMT4 (h)
  inhibition at 10 µM: 90%
  IC50: 4.7 µM
CREBBP(h)
  inhibition at 10 µM: 74%
  IC50: 3.9 µM

## CC(C)=CCC[C@@H]1C(O)Oc2c(C)cc(O)c3c2[C@H]1CC[C@H]3C (some centres unmarked) [Compound 2, 5,18-epoxyserrulat-14-en-8,18-diol]
HCT-8
  EC50: 6.27 µM
  GI50: 6.24 µM
  IC50: 6.27 µM
PB1(2) (h) bromodomain
  inhibition at 10 µM: 22%
[1]
  inhibition at 10 µM: -3%
HDAC2 (h)
  inhibition at 10 µM: 0%
GCN5L2(h)
  inhibition at 10 µM: 5%
JARID1B (h); 10 μM
  inhibition at 10 µM: 6%
Steroid 5alpha-Reductase
  % Control Response: −6%
[2]
  inhibition at 10 µM: -19%
H3K79 me2
  inhibition at 10 µM: -16%
FALZ (h) bromodomain
  inhibition at 10 µM: 18%
PB1(4) (h) bromodomain
  inhibition at 10 µM: -3%
CECR2 (h) bromodomain; 10 μM
  inhibition at 10 µM: 25%
USP 7 (h)
  inhibition at 10 µM: -14%
PHF8(h)
  inhibition at 10 µM: -11%
[3]; A204, Soft Tissue - Sarcoma
  EC50: 8460 nM
  IC50: 8540 nM
[3]; [4]
  GI50: 8500 nM
SMARCA4 (h) bromodomain
  inhibition at 10 µM: 16%
PRMT4 (h)
  inhibition at 10 µM: 84%
  IC50: 5.4 µM
CREBBP(h)
  inhibition at 10 µM: 78%
  IC50: 6.1 µM

## CC(C)=CCC[C@@H]1COc2c(C)cc(O)c3c2[C@H]1CC[C@H]3C [Compound 3, 5,18-epoxy-8-hydroxyserrulat-14-ene]
PB1(2) (h) bromodomain
  inhibition at 10 µM: 13%
[1]
  inhibition at 10 µM: -5%
HDAC2 (h)
  inhibition at 10 µM: -2%
GCN5L2(h)
  inhibition at 10 µM: 1%
JARID1B (h); 10 μM
  inhibition at 10 µM: -2%
Steroid 5alpha-Reductase
  % Control Response: 3%
[2]
  inhibition at 10 µM: -15%
H3K79 me2
  inhibition at 10 µM: -5%
FALZ (h) bromodomain
  inhibition at 10 µM: 5%
PB1(4) (h) bromodomain
  inhibition at 10 µM: 16%
CECR2 (h) bromodomain; 10 μM
  inhibition at 10 µM: 15%
USP 7 (h)
  inhibition at 10 µM: 9%
PHF8(h)
  inhibition at 10 µM: 13%
SMARCA4 (h) bromodomain
  inhibition at 10 µM: 13%
PRMT4 (h)
  inhibition at 10 µM: 77%
CREBBP(h)
  inhibition at 10 µM: 43%

## CC(C)=CCC[C@H](C)[C@@H]1CC[C@@H](C)c2c1cc(C)c(O)c2O [Compound 4, 7,8-dihydroxyserrulat-14-ene]
HCT-8
  EC50: 12.9 µM
  GI50: 12.9 µM
  IC50: 12.9 µM
[3]; A204, read-out: GI50
  GI50: 684 nM
[3]; A204, Soft Tissue - Sarcoma
  EC50: 720 nM
  IC50: 720 nM
[3]; [4]
  GI50: 680 nM
PRMT4 (h)
  IC50: 4.7 µM
